One compound from patent publication US8785483B2, “Methods for treating COPD” (The Board of Regents of the University of Texas System, priority 2010, dated 2014) can be followed below.

What all share (assay type): cell-based, human
One assay relates to ERK1/2. The experiment in a line: Western blot of ERK1/2 phosphorylation in airway epithelial monolayer. The note with it: ALI monolayer, AR inhibitor 24 h prior to IL-13. Here is the method: (§1) FIG. 7. AR inhibition prevents IL-13-induced phosphorylation of JAK-1, ERK1/2 and STAT-6 in airway epithelial monolayer. The ciliated monolayer of airway cells at ALI was treated with AR inhibitor for 24 h and stimulated with IL-13 for different time periods as indicated. At the end of incubation, cells were lysed and cell lysate was subjected to western blotting using antibodies against phosphorylated and nonphosphorylated JAK-1, ERK1/2 and STAT-6 to analyze the activation of these signaling proteins. A representative blot is shown (n=4). #p<0.001 vs Control; *p<0.01 and **p<0.001 vs IL-13. For air-liquid interface (ALI) culture, SAEC were seeded at 8.5×10^4 cells/12-mm-diameter PET transparent insert with […] pores (12-well millicell culture insert; Millipore) and pre-coated with rat tail collagen type-1 (Sigma-Aldrich). The cells were grown submerged in the differentiation medium as described earlier by Zhen et al. (Am J Respir Cell Mol Biol 36: 244-253, 2007). […] Protein levels were determined using Bradford reagent (Biorad, Hercules, Calif.). […] The blots were then washed, exposed to HRP-conjugated secondary antibodies (1:5,000 dilution) for 1 h, and the antigen-antibody complex was detected by enhanced chemiluminescence (Amersham Pharmacia Biotech, Piscataway, N.J., USA). […]
A general note: In western blotting, separated proteins are transferred to a membrane and probed.

A further assay deals with JAK1. The experiment in a line: Western blot of JAK1 phosphorylation in airway epithelial monolayer. Here is the method: as §1
Another assay deals with SAEC. Put plainly: IL-13-induced ROS levels (H2DCF-DA fluorescence). Particulars: fidarestat 10 μM overnight, IL-13 25 ng/ml 1 h. Here is the method: FIGS. 3A-3B. Inhibition of AR prevents IL-13-induced reactive oxygen species (ROS) production in SAEC. (A) Approximately 5×10^4 cells were seeded on 2-chambered slides and starved in serum-free basal medium without or with fidarestat overnight. The cells were washed with 1×HBSS and incubated with 10 μM H2DCF-DA at 37° C. for 30 min, washed again and treated with IL-13 (25 ng/ml) for 1 h. The cells were washed with cold 1×HBSS twice and mounted using floursave mounting medium with DAPI. Photomicrographs were acquired using a fluorescence microscope (Nikon). A representative image is shown (n=4); Magnification 400×. (B) Approximately 10,000 SAEC were plated per well in a 96-well plate and serum-starved for 24 h without or with fidarestat. […] At the end of the treatment, cells were washed twice with HBSS and fluorescence was determined at 485 nm excitation and 538 nm emission wavelengths. Relative ROS production is expressed as mean fluorescence intensity (MFI) (arbitrary units). […] The cells on the culture slide were mounted using floursave mounting medium with DAPI after which photomicrographs were acquired using a fluorescence microscope (Nikon). Fluorescence was determined using 485 nm excitation and 538 nm emission wavelengths for cells in 96-well plate and relative ROS production is expressed as mean fluorescence intensity (MFI) (arbitrary units).

As for `NC(=O)[C@@H]1C[C@]2(NC(=O)NC2=O)c2cc(F)ccc2O1` [fidarestat, (2S,4S)-2-aminoformyl-6-fluoro-spiro[chroman-4,4′-imidazolidine]-2′,5′-dione], the “IL-13-induced phosphorylation of ERK1/2” value with ERK1/2 is recorded as “decreased significantly”. Besides, the “IL-13-induced phosphorylation of JAK1” value with JAK1 (ALI monolayer, AR inhibitor 24 h prior to IL-13) is “decreased significantly”. Moreover, the “basal phosphorylation of JAK1” value with JAK1 (AR inhibitor alone, no IL-13) is on record as “decreased”. For the same compound, the “prevention of IL-13-induced increase in ROS levels” value in the assay with SAEC came out at 80%.
